In US20190290694A1, “STABLY ENGINEREED PROTEASOME INHIBITOR RESISTANT IMMUNE CELLS FOR IMMUNOTHERAPY” (CELLECTIS, priority 2016, published 2019):

Tests used:
[1] = tested on: GECKO-transduced primary T-cells; test: Puromycine resistance test of mock- and GECKO-transduced primary T-cells (viability by flow cytometry); format: cell-based, human; design: dose or concentration left out as unconfirmed; settings: GECKO-transduced versus mock T-cells, 3 days, simultaneous activation/transduction, FIG. 5
Experimental: Peripheral blood mononuclear cells (PBMC) were obtained from healthy volunteer donors and T-lymphocytes were purified using the EasySep human T-cell enrichment kit (Stemcell Technologies). By contrast with the GECKO protocol described by Shalem et al., primary T-cells were activated and immediately transduced with the viral particles. The T-cells were first mixed with dynabeads (25 uL/10^6 T-cells) in Xvivo-15 media and then plated on 12 well plates coated by 30 ug/mL retronectin per well (iml of retronectin per well incubated 1 hour at 37° C. followed by a washing steps using 1 ml of PBS 2% FBS) in a total volume of 400 μL. The mixture was supplemented by either 200 μL of GECKO lentiviral particles or 200 μL of Xvivo-15 media and incubated 2H at 37° C. and 5% CO2. The mixture was then supplemented by 600 μL of Xvivo-15 media, 10% AB serum and 40 ng/mL IL2 and incubated overnight at 37° C. with 5% CO2. Cells were then washed with 1.5 ml of Xvivo-15 media and resuspended in Xvivo-15 media, 5% AB serum, 20 ng/mL IL-2 in 6 wells plate at 10^6 cells/mL.
3 days post transduction, cells were recovered and used to perform a puromycine resistance test. […] FIG. 2 illustrates the puromycine sensitivity pattern of mock- and GECKO-transduced primary T-cells determined by flow cytometry. […] Cells are then recovered, labeled using EFluor780 dye and analyzed by flow cytometry to determine their viability. […]

MOLM13 cell line = test: Bortezomib dose response, viability of MOLM13 cells by flow cytometry; format: cell-based; settings: Homo sapiens, MOLM-13, cultured for 48h with bortezomib, FIG. 1C, read-out: EC50 of Bortezomib (cell depletion / viability)
Experimental: (§1) To investigate whether bortezomib treatment modify the survival of primary cells, frozen PBMCs were thawed and activated using Dynabeads human T activator CD3/CD28. 3 days after their activation, 1 million cells were transduced using a CD123 CAR (specific for CD123) at a MOI of 5. Cells were then immediately diluted in X-Vivo-15 media supplemented by 20 ng/ml IL-2 and 5% human serum AB and diluted at 1×10^6 cells/ml and kept in culture at 37° C. in the presence of 5% CO2. […] At the end of the culture cell viability was assessed by flow cytometry using a live dead cell marker.

[2] = tested on: CART cells that express mutated PSMB5; test: Bortezomib dose response, viability of CART cells coexpressing mutated PSMB5; format: cell-based, human; settings: CART cells that express mutated PSMB5 as compared to WT CART cells and NT cells, 48h, FIG. 4
Experimental: (§2) To investigate whether overexpressing POMP, PSMB5 or mutated PSMB5 on CART cells confers resistance to bortezomib treatment, T-cells frozen PBMCs were thawed and activated using Dynabeads human T activator CD3/CD28. 3 days after their activation 1 million T-cells were transduced or not using the CD123 CAR and one of the ORF at a MOI of 5 for both lentiviral particles. Cells were then immediately diluted in X-Vivo-15 media supplemented by 20 ng/ml IL-2 and 5% human serum AB and diluted at 1×10^6 cells/ml and kept in culture at 37° C. in the presence of 5% CO2. 7 days later, T cells, CART cells and MOLM13 cells were cultured for 48h in the presence of increasing doses of bortezomib ranging from 0 to 100 μM. At the end of the culture cell viability was assessed by flow cytometry using a live dead cell marker.

primary T cell = test: Bortezomib dose response, viability of primary T cells by flow cytometry (live dead cell marker); format: cell-based; settings: Homo sapiens, cultured for 48h with bortezomib, FIG. 1A, read-out: EC50 of Bortezomib (cell depletion / viability)
From the text: (§3) Peripheral blood mononuclear cells (PBMC) were obtained from healthy volunteer donors as described by Schwartz J. et al. (Guidelines on the use of therapeutic apheresis in clinical practice-evidence-based approach from the Writing Committee of the American Society for Apheresis: the sixth special issue (2013) J Clin Apher. 28(3):145-284).
as §1

[3] = tested on: primary CAR T-cell (CAR anti-CD123); test: Bortezomib dose response, viability of primary CAR T-cells (CAR anti-CD123) by flow cytometry; format: cell-based, human
From the text: as §3
To investigate whether bortezomib treatment modify the survival of primary cells, frozen PBMCs were thawed and activated using Dynabeads human T activator CD3/CD28. 3 days after their activation, 1 million cells were transduced using a CD123 CAR (specific for CD123) at a MOI of 5. Cells were then immediately diluted in X-Vivo-15 media supplemented by 20 ng/ml IL-2 and 5% human serum AB and diluted at 1×10^6 cells/ml and kept in culture at 37° C. in the presence of 5% CO2. 7 days later, T cells, CART cells and MOLM13 cells were cultured for 48h in the presence of bortezomib increasing doses of bortezomib ranging from 0 nM to […]. At the end of the culture cell viability was assessed by flow cytometry using a live dead cell marker.
To investigate whether overexpressing POMP, PSMB5 or mutated PSMB5 on CART cells confers resistance to bortezomib treatment, T-cells frozen PBMCs were thawed and activated using Dynabeads human T activator CD3/CD28. […] At the end of the culture cell viability was assessed by flow cytometry using a live dead cell marker.

[4] = tested on: CART cells that express PSMB5; test: Bortezomib dose response, viability of CART cells coexpressing PSMB5; format: cell-based, human; settings: CART cells that express PSMB5 as compared to WT CART cells and NT cells, 48h, FIG. 4
Experimental: as §2

SMILES | puromycine sensitivity (viability frequency) [1] | EC50 (MOLM13 cell line) [nM] | EC50 of bortezomib, change [2] | EC50 (primary T cell) [nM] | EC50 of bortezomib, change ([3]; CART cells as compared to non-transduced cells, 48h, FIG. 4) | EC50 ([3]; Homo sapiens, T-cell, primary CART cells (CD123 CAR), cultured for 48h with bortezomib, FIG. 1B, read-out: EC50 of Bortezomib (cell depletion / viability)) [nM] | EC50 of bortezomib, change [4]
COc1ccc(C[C@H](N)C(=O)N[C@H]2[C@@H](O)[C@H](n3cnc4c(N(C)C)ncnc43)O[C@@H]2CO)cc1 [puromycine] | more resistance | – | – | – | – | – | –
CC(C)C[C@H](NC(=O)[C@H](Cc1ccccc1)NC(=O)c1cnccn1)B(O)O [bortezomib] | – | ~10 | increased | ~10 | increased | ~10 | increased
